In ChEMBL document CHEMBL4613212, “Insights of synthetic analogues of anti-leprosy agents” (Bioorg Med Chem, 2019):
Values after ≈ are worked out from the molar mass of the structure shown. Active and inactive are the calls of the source. The rule behind the calls is not given here.

Columns and labels:
Format in all cases: functional
Mycobacterium leprae = assay: Anti-leprotic activity against Mycobacterium leprae assessed as maximum bactericidal dilutions
[1] = test system: Mycobacterium tuberculosis; assay: Antitubercular activity against Mycobacterium tuberculosis H37Rv ATCC 27294 assessed as growth inhibition at 6.25 ug/ml by microplate alamar blue assay relative to control
[2] = test system: Mycobacterium tuberculosis; assay: Antitubercular activity against Mycobacterium tuberculosis H37Rv ATCC 27294 assessed as inhibition of [3H]-thymidine incorporation relative to control
[3] = test system: Mycobacterium tuberculosis; assay: Antitubercular activity against Mycobacterium tuberculosis infected in mouse assessed as reduction in microbial load at 2 to 3 mg ip, pretreated for 48 to 72 hrs followed by microbial infection and subsequent compound dosing at 48 to 72 hrs post-infection measured 24 to 32 days post-infection relative to control; set-up: scale not given: the % may be the effect or the level left
Enterococcus faecalis [4] = assay: Antimicrobial activity against Enterococcus faecalis ATCC 29212 by broth microdilution assay
Staphylococcus aureus = assay: Antimicrobial activity against Staphylococcus aureus ATCC 25923 by broth microdilution assay
Enterococcus faecalis [5] = assay: Antimicrobial activity against Enterococcus faecalis ATCC 51922 by broth microdilution assay
Listeria monocytogenes = assay: Antimicrobial activity against Listeria monocytogenes ATCC 1911 by broth microdilution assay
Klebsiella pneumoniae = assay: Antimicrobial activity against Klebsiella pneumoniae 700603 by broth microdilution assay
Pseudomonas aeruginosa = assay: Antimicrobial activity against Pseudomonas aeruginosa ATCC 27853 by broth microdilution assay
Escherichia coli [6] = assay: Antimicrobial activity against Escherichia coli ATCC 35218 by broth microdilution assay
Escherichia coli [7] = assay: Antimicrobial activity against Escherichia coli ATCC 25922 by broth microdilution assay

Structure (SMILES) | fold change (FC) (Mycobacterium leprae) | Activity [3] | other results
CCCCCCCCCCC(C(=O)O)C1CCCCC1 (configuration not stated) | 180 | – | –
c1ccc(CCn2cnc3c(-c4ccco4)ncnc32)cc1 | – | – | inhibition at 6.25 µg/mL [1]: 26%; inhibition (INH) [2]: 53%
c1coc(-c2ncnc3c2ncn3CC2CCCCC2)c1 | – | – | inhibition at 6.25 µg/mL [1]: 22%; inhibition (INH) [2]: 60%
CCCCCCCC(CCC1CCCC1)C(=O)O (configuration not stated) | 170 | – | –
CCCCCCC(CCC1CCCCC1)C(=O)O (configuration not stated) | 125 | – | –
OCCOCCOCCOCCOCCOCCOCCOCCOCCOCCOCCOCCOc1c2cc(-c3ccccc3)cc1Cc1cc(-c3ccccc3)cc(c1OCCOCCOCCOCCOCCOCCOCCOCCOCCOCCOCCOCCO)Cc1cc(-c3ccccc3)cc(c1OCCOCCOCCOCCOCCOCCOCCOCCOCCOCCOCCOCCO)Cc1cc(-c3ccccc3)cc(c1OCCOCCOCCOCCOCCOCCOCCOCCOCCOCCOCCOCCO)Cc1cc(-c3ccccc3)cc(c1OCCOCCOCCOCCOCCOCCOCCOCCOCCOCCOCCOCCO)Cc1cc(-c3ccccc3)cc(c1OCCOCCOCCOCCOCCOCCOCCOCCOCCOCCOCCOCCO)Cc1cc(-c3ccccc3)cc(c1OCCOCCOCCOCCOCCOCCOCCOCCOCCOCCOCCOCCO)C2 | – | 80 - 100% | –
CC(C)(C)CC(C)(C)c1cc2c(O)c(c1)Cc1cc(C(C)(C)CC(C)(C)C)cc(c1OCCOCCOCCOCCOCCOCCO)Cc1cc(C(C)(C)CC(C)(C)C)cc(c1O)Cc1cc(C(C)(C)CC(C)(C)C)cc(c1OCCOCCOCCOCCOCCOCCO)Cc1cc(C(C)(C)CC(C)(C)C)cc(c1O)Cc1cc(C(C)(C)CC(C)(C)C)cc(c1OCCOCCOCCOCCOCCOCCO)Cc1cc(C(C)(C)CC(C)(C)C)cc(c1O)Cc1cc(C(C)(C)CC(C)(C)C)cc(c1OCCOCCOCCOCCOCCOCCO)C2 | – | 20 - 50% | –
CCCCCCCCC(CCC1CCCCC1)C(=O)O (configuration not stated) | 220 | – | –
O=S(=O)(O)c1cc2c(O)c(c1)Cc1cc(S(=O)(=O)O)cc(c1O)Cc1cc(S(=O)(=O)O)cc(c1O)Cc1cc(S(=O)(=O)O)cc(c1O)Cc1cc(S(=O)(=O)O)cc(c1O)Cc1cc(S(=O)(=O)O)cc(c1O)Cc1cc(S(=O)(=O)O)cc(c1O)Cc1cc(S(=O)(=O)O)cc(c1O)C2 | – | 50 - 80% | –
CC(C)(C)c1cc2c(O)c(c1)Cc1cc(C(C)(C)C)cc(c1OCCOCCOCCOCCOCCOCCO)Cc1cc(C(C)(C)C)cc(c1O)Cc1cc(C(C)(C)C)cc(c1OCCOCCOCCOCCOCCOCCO)Cc1cc(C(C)(C)C)cc(c1O)Cc1cc(C(C)(C)C)cc(c1OCCOCCOCCOCCOCCOCCO)Cc1cc(C(C)(C)C)cc(c1O)Cc1cc(C(C)(C)C)cc(c1OCCOCCOCCOCCOCCOCCO)C2 | – | 20 - 50% | –
c1csc(-c2[nH]cnc3ncnc2-3)c1 | – | – | inhibition at 6.25 µg/mL [1]: 7%; inhibition (INH) [2]: <10%
CC(C)(C)c1cc2c(OCCOCCOCCOCCOCCOCCOCCOCCOCCOCCOCCOCCO)c(c1)Cc1cc(C(C)(C)C)cc(c1OCCOCCOCCOCCOCCOCCOCCOCCOCCOCCOCCOCCO)Cc1cc(C(C)(C)C)cc(c1OCCOCCOCCOCCOCCOCCOCCOCCOCCOCCOCCOCCO)Cc1cc(C(C)(C)C)cc(c1OCCOCCOCCOCCOCCOCCOCCOCCOCCOCCOCCOCCO)Cc1cc(C(C)(C)C)cc(c1OCCOCCOCCOCCOCCOCCOCCOCCOCCOCCOCCOCCO)Cc1cc(C(C)(C)C)cc(c1OCCOCCOCCOCCOCCOCCOCCOCCOCCOCCOCCOCCO)Cc1cc(C(C)(C)C)cc(c1OCCOCCOCCOCCOCCOCCOCCOCCOCCOCCOCCOCCO)Cc1cc(C(C)(C)C)cc(c1OCCOCCOCCOCCOCCOCCOCCOCCOCCOCCOCCOCCO)C2 | – | 50 - 100% | –
c1ccc(-c2ncnc3c2ncn3C2CCOCC2)cc1 | – | – | inhibition at 6.25 µg/mL [1]: 3%; inhibition (INH) [2]: <10%
CC(C)(C)c1cc2c(O)c(c1)Cc1cc(C(C)(C)C)cc(c1O)Cc1cc(C(C)(C)C)cc(c1O)Cc1cc(C(C)(C)C)cc(c1O)C2 | – | inactive | –
Clc1nc(-c2ccco2)c2ncn(C3CCOCC3)c2n1 | – | – | inhibition at 6.25 µg/mL [1]: 6%; inhibition (INH) [2]: 36%
CCCCCCCCCCCC(C(=O)O)C1CCCC1 (configuration not stated) | 153 | – | –
CCCCCCCCCCC(C(=O)O)C1CCCC1 (configuration not stated) | 143 | – | –
CCCCCCC(CCC1CCCC1)C(=O)O (configuration not stated) | 320 | – | –
CC(C)(C)c1cc2c(O)c(c1)Cc1cc(C(C)(C)C)cc(c1OCCOCCOCCOCCOCCOCCOCCOCCOCCOCCOCCOCCO)Cc1cc(C(C)(C)C)cc(c1O)Cc1cc(C(C)(C)C)cc(c1OCCOCCOCCOCCOCCOCCOCCOCCOCCOCCOCCOCCO)Cc1cc(C(C)(C)C)cc(c1O)Cc1cc(C(C)(C)C)cc(c1OCCOCCOCCOCCOCCOCCOCCOCCOCCOCCOCCOCCO)Cc1cc(C(C)(C)C)cc(c1O)Cc1cc(C(C)(C)C)cc(c1OCCOCCOCCOCCOCCOCCOCCOCCOCCOCCOCCOCCO)C2 | – | 20 - 50% | –
CC(C)(C)c1cc2c(OCCOCCOCCOCCOCCOCCO)c(c1)Cc1cc(C(C)(C)C)cc(c1OCCOCCOCCOCCOCCOCCO)Cc1cc(C(C)(C)C)cc(c1OCCOCCOCCOCCOCCOCCO)Cc1cc(C(C)(C)C)cc(c1OCCOCCOCCOCCOCCOCCO)Cc1cc(C(C)(C)C)cc(c1OCCOCCOCCOCCOCCOCCO)Cc1cc(C(C)(C)C)cc(c1OCCOCCOCCOCCOCCOCCO)C2 | – | 80 - 100% | –

Structure (SMILES) | fold change (FC) (Mycobacterium leprae) | Activity [3] | other results
CCCCCCCCCC(C(=O)O)C1CCCCC1 (configuration not stated) | 190 | – | –
Clc1nc(-c2cccs2)c2ncn(C3CCOCC3)c2n1 | – | – | inhibition at 6.25 µg/mL [1]: 7%; inhibition (INH) [2]: 61%
CCCCCCCCC(CCC1CCCC1)C(=O)O (configuration not stated) | 180 | – | –
C=CCn1cnc2c(-c3ccco3)ncnc21 | – | – | inhibition at 6.25 µg/mL [1]: 7%; inhibition (INH) [2]: 11%
CCCCCCCCCCC(C(=O)O)C1C=CCC1 (configuration not stated) | 167 | – | –
Cn1cnc2c(-c3ccco3)ncnc21 | – | – | inhibition at 6.25 µg/mL [1]: 0%; inhibition (INH) [2]: <10%
c1coc(-c2ncnc3c2ncn3C2CCOCC2)c1 | – | – | inhibition at 6.25 µg/mL [1]: 0%; inhibition (INH) [2]: 15%
CCCCCCCCC(C(=O)O)C1CCCCC1 (configuration not stated) | 110 | – | –
COCCOCCOCCOc1c2cc(C(C)(C)C)cc1Cc1cc(C(C)(C)C)cc(c1OCCOCCOCCOC)Cc1cc(C(C)(C)C)cc(c1OCCOCCOCCOC)Cc1cc(C(C)(C)C)cc(c1OCCOCCOCCOC)Cc1cc(C(C)(C)C)cc(c1OCCOCCOCCOC)Cc1cc(C(C)(C)C)cc(c1OCCOCCOCCOC)Cc1cc(C(C)(C)C)cc(c1OCCOCCOCCOC)Cc1cc(C(C)(C)C)cc(c1OCCOCCOCCOC)C2 | – | 80 - 100% | –
CC(C)(C)c1cc2c(O)c(c1)Cc1cc(C(C)(C)C)cc(c1OCCOCCOCCOCCOCCOCCO)Cc1cc(C(C)(C)C)cc(c1O)Cc1cc(C(C)(C)C)cc(c1OCCOCCOCCOCCOCCOCCO)Cc1cc(C(C)(C)C)cc(c1O)Cc1cc(C(C)(C)C)cc(c1OCCOCCOCCOCCOCCOCCO)C2 | – | 20 - 50% | –
CC(C)(C)c1cc2c(O)c(c1)Cc1cc(C(C)(C)C)cc(c1O)Cc1cc(C(C)(C)C)cc(c1O)Cc1cc(C(C)(C)C)cc(c1O)Cc1cc(C(C)(C)C)cc(c1O)Cc1cc(C(C)(C)C)cc(c1O)Cc1cc(C(C)(C)C)cc(c1O)Cc1cc(C(C)(C)C)cc(c1O)C2 | – | 20 - 50% | –
CCCCCCCC(CCC1CCCCC1)C(=O)O (configuration not stated) | 160 | – | –
OCCOCCOCCOCCOCCOCCOc1c2cc(-c3ccccc3)cc1Cc1cc(-c3ccccc3)cc(c1OCCOCCOCCOCCOCCOCCO)Cc1cc(-c3ccccc3)cc(c1OCCOCCOCCOCCOCCOCCO)Cc1cc(-c3ccccc3)cc(c1OCCOCCOCCOCCOCCOCCO)Cc1cc(-c3ccccc3)cc(c1OCCOCCOCCOCCOCCOCCO)Cc1cc(-c3ccccc3)cc(c1OCCOCCOCCOCCOCCOCCO)Cc1cc(-c3ccccc3)cc(c1OCCOCCOCCOCCOCCOCCO)C2 | – | 20 - 50% | –
CCCCCCCCCC(C(=O)O)C1CCCC1 (configuration not stated) | 111 | – | –
CCCCCCCCCC(C(=O)O)C1C=CCC1 (configuration not stated) | 150 | – | –
c1csc(-c2ncnc3c2ncn3C2CCOCC2)c1 | – | – | inhibition at 6.25 µg/mL [1]: 0%; inhibition (INH) [2]: 23%
O=C(N[C@H](CO)[C@H](O)c1ccc([N+](=O)[O-])cc1)C(Cl)Cl [CHLORAMPHENICOL] | – | – | MIC (Enterococcus faecalis [4]): 200 mg/L (≈ 619 µM); MIC (Staphylococcus aureus): 100 mg/L (≈ 309 µM); MIC (Enterococcus faecalis [5]): 200 mg/L (≈ 619 µM); MIC (Listeria monocytogenes): 100 mg/L (≈ 309 µM); MIC (Klebsiella pneumoniae): 200 mg/L (≈ 619 µM); MIC (Pseudomonas aeruginosa): 200 mg/L (≈ 619 µM); MIC (Escherichia coli [6]): 100 mg/L (≈ 309 µM); MIC (Escherichia coli [7]): 25 mg/L (≈ 77.4 µM)
CC(C)(C)c1cc2c(OCCOCCOCCOCCOCCOCCO)c(c1)Cc1cc(C(C)(C)C)cc(c1OCCOCCOCCOCCOCCOCCO)Cc1cc(C(C)(C)C)cc(c1OCCOCCOCCOCCOCCOCCO)Cc1cc(C(C)(C)C)cc(c1OCCOCCOCCOCCOCCOCCO)Cc1cc(C(C)(C)C)cc(c1OCCOCCOCCOCCOCCOCCO)Cc1cc(C(C)(C)C)cc(c1OCCOCCOCCOCCOCCOCCO)Cc1cc(C(C)(C)C)cc(c1OCCOCCOCCOCCOCCOCCO)Cc1cc(C(C)(C)C)cc(c1OCCOCCOCCOCCOCCOCCO)C2 | – | 80 - 100% | –
Oc1c2cc(-c3ccccc3)cc1Cc1cc(-c3ccccc3)cc(c1O)Cc1cc(-c3ccccc3)cc(c1O)Cc1cc(-c3ccccc3)cc(c1O)Cc1cc(-c3ccccc3)cc(c1O)Cc1cc(-c3ccccc3)cc(c1O)Cc1cc(-c3ccccc3)cc(c1O)C2 | – | 20 - 50% | –
Oc1c2cc(-c3ccccc3)cc1Cc1cc(-c3ccccc3)cc(c1O)Cc1cc(-c3ccccc3)cc(c1O)Cc1cc(-c3ccccc3)cc(c1O)Cc1cc(-c3ccccc3)cc(c1O)Cc1cc(-c3ccccc3)cc(c1O)Cc1cc(-c3ccccc3)cc(c1O)Cc1cc(-c3ccccc3)cc(c1O)C2 | – | 20 - 50% | –
